Laboratory results reported in patent publication US12195482B1 (Arcus Biosciences, Inc., priority 2022, dated 2025).

These compounds were tested against T1, Axl (Homo sapiens, UniProt P30530) (assay: Axl NanoBRET intracellular kinase assay (intracellular binding, K-5 tracer displacement)). Conditions: HEK-293 cells transfected with Axl-NanoLuc, 0.35 μM K-5 NanoBRET tracer; read-out: Cell Binding AXL.
T1 sequence (P30530 26-894): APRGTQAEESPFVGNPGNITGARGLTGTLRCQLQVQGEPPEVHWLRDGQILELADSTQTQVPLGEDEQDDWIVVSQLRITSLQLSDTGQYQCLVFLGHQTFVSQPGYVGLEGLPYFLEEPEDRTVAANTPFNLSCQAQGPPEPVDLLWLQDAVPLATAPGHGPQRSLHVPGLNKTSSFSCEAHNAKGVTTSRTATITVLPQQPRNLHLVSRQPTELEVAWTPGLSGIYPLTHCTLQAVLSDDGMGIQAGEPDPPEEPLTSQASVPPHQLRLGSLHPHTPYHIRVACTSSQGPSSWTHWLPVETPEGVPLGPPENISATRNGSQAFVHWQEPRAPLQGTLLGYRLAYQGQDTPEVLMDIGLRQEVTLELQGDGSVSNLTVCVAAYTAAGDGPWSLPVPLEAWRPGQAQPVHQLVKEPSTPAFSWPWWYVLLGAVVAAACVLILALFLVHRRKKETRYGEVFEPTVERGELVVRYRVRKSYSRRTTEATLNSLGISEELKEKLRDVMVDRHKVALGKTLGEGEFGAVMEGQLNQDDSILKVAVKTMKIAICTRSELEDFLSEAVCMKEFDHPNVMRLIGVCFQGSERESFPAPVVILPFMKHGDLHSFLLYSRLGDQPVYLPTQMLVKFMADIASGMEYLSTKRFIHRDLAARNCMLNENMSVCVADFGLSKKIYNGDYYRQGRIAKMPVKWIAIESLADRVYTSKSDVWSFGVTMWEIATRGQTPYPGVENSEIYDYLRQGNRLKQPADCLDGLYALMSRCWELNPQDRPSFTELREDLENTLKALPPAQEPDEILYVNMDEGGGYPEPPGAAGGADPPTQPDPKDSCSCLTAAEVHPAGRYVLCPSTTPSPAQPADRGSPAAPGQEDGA
Set-up: host or cells: HEK-293
Procedure: Measuring Intracellular Binding of Axl Inhibitors
Axl NanoBRET™ intracellular kinase assay (Promega, N2540) was performed according to manufacturer's recommendation. In brief, HEK-293 cells are transiently transfected with Ax1-NanoLuc fusion vector (Promega, NV1071), utilizing Fugene HD transfection reagent (Promega, E2311) a day before experiment following manufacturer's recommendation.
The day of the assay, the cells were collected and resuspended in Opti-MEM media (ThermoFisher, 31985070) at 2e5 cells/mL concentration. Testing compounds were serial diluted and dispensed into a white 384 well polystyrene plate at 200 nL in 100% DMSO. 40 μL of resuspended cells is then added per well for a final condition of 8K cells/well with 0.5% DMSO. After one-hour compound pre-incubation at 37° C. and 5% CO2, cells were further incubated with 0.35 μM K-5 NanoBRET tracer for two-hours at 37° C. and 5% CO2. […] of 3× substrate plus Inhibitor solution was prepared according to kits manual and added to the cells followed by a 30 second pulse centrifugation spin. The plate was then immediately read utilizing an Envision (Perkin Elmer) plate reader. The BRET signal is measured by taking the ratio of the emissions reading at 610 nm and 450 nm. Compound binding is based on the decrease BRET signal caused by the displacement of the K-5 tracer. […] ICso value of compounds was determined by 4-parameter non-linear regression fitting of percent activity in GraphPad Prism software.

IC50, < 100 nM:
CN(C)C(=O)c1ccccc1-c1ccc(-c2c[nH]c3ncc(-c4ccc5c(c4)CC[C@@H](N4C6COCC4C6)CC5)cc23)cn1 [Example 170, N,N-Dimethyl-2-(5-{5-[(7S)-7-{3-oxa-6-azabicyclo[3.1.1]heptan-6-yl}-6,7,8,9-tetrahydro-5H-benzo[7]annulen-2-yl]-1H-pyrrolo[2,3-b]pyridin-3-yl}pyridin-2-yl)benzamide]
COc1cccnc1-c1ccc(-c2c[nH]c3ncc(-c4ccc5c(c4)CC[C@@H](N4C6COCC4C6)CC5)cc23)cc1 [Example 164, 6-[(7S)-2-{3-[4-(3-Methoxypyridin-2-yl)phenyl]-1H-pyrrolo[2,3-b]pyridin-5-yl}-6,7,8,9-tetrahydro-5H-benzo[7]annulen-7-yl]-3-oxa-6-azabicyclo[3.1.1]heptane]
Cc1cccnc1-c1ccc(-c2c[nH]c3ncc(-c4ccc5c(c4)CC[C@@H](N4CCCC4)CC5)cc23)cc1 [Example 173, 3-Methyl-2-(4-{5-[(7S)-7-(pyrrolidin-1-yl)-6,7,8,9-tetrahydro-5H-benzo[7]annulen-2-yl]-1H-pyrrolo[2,3-b]pyridin-3-yl}phenyl)pyridine]
CC(C)(O)c1cccnc1-c1ccc(-c2n[nH]c3ncc(-c4ccc5c(c4)CC[C@@H](N4C6COCC4C6)CC5)cc23)cc1 [Example 10, 2-[2-(4-{5-[(7S)-7-{3-Oxa-6-azabicyclo[3.1.1]heptan-6-yl}-6,7,8,9-tetrahydro-5H-benzo[7]annulen-2-yl]-1H-pyrazolo[3,4-b]pyridin-3-yl}phenyl)pyridin-3-yl]propan-2-ol]
Cn1cnnc1-c1ccc(-c2n[nH]c3ncc(-c4ccc5c(c4)CC[C@@H](N4C6COCC4C6)CC5)cc23)cc1 [Example 169, 6-[(7S)-2-{3-[4-(4-Methyl-4H-1,2,4-triazol-3-yl)phenyl]-1H-pyrazolo[3,4-b]pyridin-5-yl}-6,7,8,9-tetrahydro-5H-benzo[7]annulen-7-yl]-3-oxa-6-azabicyclo[3.1.1]heptane]
Cc1cccnc1-c1ccc(-c2n[nH]c3ncc(-c4ccc5c(c4)CC[C@@](C)(N4CCC[C@H]4C)CC5)cc23)cc1 [Example 163, 3-Methyl-2-(4-{5-[(7S)-7-methyl-7-[(2R)-2-methylpyrrolidin-1-yl]-6,7,8,9-tetrahydro-5H-benzo[7]annulen-2-yl]-2H-pyrazolo[3,4-b]pyridin-3-yl}phenyl)pyridine]
c1ccc(-n2cc(-c3n[nH]c4ncc(-c5ccc6c(c5)CC[C@@H](N5C7COCC5C7)CC6)cc34)cn2)nc1 [Example 168, 6-[(7S)-2-{3-[1-(Pyridin-2-yl)-1H-pyrazol-4-yl]-1H-pyrazolo[3,4-b]pyridin-5-yl}-6,7,8,9-tetrahydro-5H-benzo[7]annulen-7-yl]-3-oxa-6-azabicyclo[3.1.1]heptane]
c1ccc(-c2ccc(-c3c[nH]c4ncc(-c5ccc6c(c5)CC[C@@H](N5C7COCC5C7)CC6)cc34)cc2)nc1 [Example 155, 6-[(7S)-2-{3-[4-(Pyridin-2-yl)phenyl]-1H-pyrrolo[2,3-b]pyridin-5-yl}-6,7,8,9-tetrahydro-5H-benzo[7]annulen-7-yl]-3-oxa-6-azabicyclo[3.1.1]heptane]
Cn1nncc1-c1ccc(-c2n[nH]c3ncc(-c4ccc5c(c4)CC[C@@H](N4C6COCC4C6)CC5)cc23)cc1 [Example 13, 6-[(7S)-2-{3-[4-(1-Methyl-1H-1,2,3-triazol-5-yl)phenyl]-1H-pyrazolo[3,4-b]pyridin-5-yl}-6,7,8,9-tetrahydro-5H-benzo[7]annulen-7-yl]-3-oxa-6-azabicyclo[3.1.1]heptane]
Cn1ncnc1-c1ccc(-c2n[nH]c3ncc(-c4ccc5c(c4)CC[C@@H](N4C6COCC4C6)CC5)cc23)cc1 [Example 110, 6-[(7S)-2-{3-[4-(1-Methyl-1H-1,2,4-triazol-5-yl)phenyl]-2H-pyrazolo[3,4-b]pyridin-5-yl}-6,7,8,9-tetrahydro-5H-benzo[7]annulen-7-yl]-3-oxa-6-azabicyclo[3.1.1]heptane]
CC(C)(O)c1cccnc1-c1ccc(-c2c[nH]c3ncc(-c4ccc5c(c4)CC[C@@H](N4C6COCC4C6)CC5)cc23)cc1 [Example 95, 2-[2-(4-{5-[(7S)-7-{3-Oxa-6-azabicyclo[3.1.1]heptan-6-yl}-6,7,8,9-tetrahydro-5H-benzo[7]annulen-2-yl]-1H-pyrrolo[2,3-b]pyridin-3-yl}phenyl)pyridin-3-yl]propan-2-ol]
Cc1cncnc1-c1ccc(-c2n[nH]c3ncc(-c4ccc5c(c4)CC[C@@H](N4C6COCC4C6)CC5)cc23)cc1 [Example 174, 6-[(7S)-2-{3-[4-(5-Methylpyrimidin-4-yl)phenyl]-1H-pyrazolo[3,4-b]pyridin-5-yl}-6,7,8,9-tetrahydro-5H-benzo[7]annulen-7-yl]-3-oxa-6-azabicyclo[3.1.1]heptane]
COc1cccnc1-c1ccc(-c2n[nH]c3ncc(-c4ccc5c(c4)CC[C@@H](N4C6COCC4C6)CC5)cc23)cc1 [Example 166, 6-[(7S)-2-{3-[4-(3-Methoxypyridin-2-yl)phenyl]-1H-pyrazolo[3,4-b]pyridin-5-yl}-6,7,8,9-tetrahydro-5H-benzo[7]annulen-7-yl]-3-oxa-6-azabicyclo[3.1.1]heptane]
CN(C)C(=O)c1ccccc1-c1ccc(-c2n[nH]c3ncc(-c4ccc5c(c4)CC[C@@H](N4C6COCC4C6)CC5)cc23)cc1 [Example 12, N,N-Dimethyl-4′-{5-[(7S)-7-{3-oxa-6-azabicyclo[3.1.1]heptan-6-yl}-6,7,8,9-tetrahydro-5H-benzo[7]annulen-2-yl]-2H-pyrazolo[3,4-b]pyridin-3-yl}-[1,1′-biphenyl]-2-carboxamide]
C[C@@H]1CCCN1[C@@]1(C)CCc2ccc(-c3cnc4[nH]nc(-c5ccc(-c6ncnn6C)cc5)c4c3)cc2CC1 [Example 112, 1-Methyl-5-(4-{5-[(7S)-7-methyl-7-[(2R)-2-methylpyrrolidin-1-yl]-6,7,8,9-tetrahydro-5H-benzo[7]annulen-2-yl]-1H-pyrazolo[3,4-b]pyridin-3-yl}phenyl)-1H-1,2,4-triazole]
Cn1nccc1-c1ccc(-c2n[nH]c3ncc(-c4ccc5c(c4)CC[C@@H](N4C6COCC4C6)CC5)cc23)cc1 [Example 109, 6-[(7S)-2-{3-[4-(1-Methyl-1H-pyrazol-5-yl)phenyl]-1H-pyrazolo[3,4-b]pyridin-5-yl}-6,7,8,9-tetrahydro-5H-benzo[7]annulen-7-yl]-3-oxa-6-azabicyclo[3.1.1]heptane]
O=C(c1cccnc1-c1ccc(-c2c[nH]c3ncc(-c4ccc5c(c4)CC[C@@H](N4C6COCC4C6)CC5)cc23)cc1)N1CCCC1 [Example 171, 6-[(7S)-2-(3-{4-[3-(Pyrrolidine-1-carbonyl)pyridin-2-yl]phenyl}-1H-pyrrolo[2,3-b]pyridin-5-yl)-6,7,8,9-tetrahydro-5H-benzo[7]annulen-7-yl]-3-oxa-6-azabicyclo[3.1.1]heptane]
Cc1nccnc1-c1ccc(-c2n[nH]c3ncc(-c4ccc5c(c4)CC[C@@H](N4C6COCC4C6)CC5)cc23)cc1 [Example 175, 6-[(7S)-2-{3-[4-(3-Methylpyrazin-2-yl)phenyl]-1H-pyrazolo[3,4-b]pyridin-5-yl}-6,7,8,9-tetrahydro-5H-benzo[7]annulen-7-yl]-3-oxa-6-azabicyclo[3.1.1]heptane]
Cc1ccnnc1-c1ccc(-c2n[nH]c3ncc(-c4ccc5c(c4)CC[C@@H](N4C6COCC4C6)CC5)cc23)cc1 [Example 176, 6-[(7S)-2-{3-[4-(4-Methylpyridazin-3-yl)phenyl]-1H-pyrazolo[3,4-b]pyridin-5-yl}-6,7,8,9-tetrahydro-5H-benzo[7]annulen-7-yl]-3-oxa-6-azabicyclo[3.1.1]heptane]
